ChEMBL document CHEMBL1201862, “PubChem BioAssay data set” (2004)
Values joined by “and” are separate entries in the source; they are usually repeats but may differ in a detail not shown here. Equal values may be shown once.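 Dose response: 5 concentrations. Exposure: 48 h. Format: 96-well plates. Endpoint: linear interpolation; highest concentration if not reached. Abbreviation: GI50, concentration required for 50% inhibition of growth.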 Active and inactive are the calls of the source. Cut-off read from the data, not from the text of the source: active = GI50 up to about 1.1 µM and inactive = higher.

Tests used:
Test in all cases: NCI tumour cell line growth inhibition, 48 h
786-0 = tested on: 786-0
U-251 = tested on: U-251
M14 = tested on: M14
NCI/ADR-RES = tested on: NCI/ADR-RES
Hs-578T = tested on: Hs-578T
NCI-H460 = tested on: NCI-H460
UACC-62 = tested on: UACC-62
OVCAR-3 = tested on: OVCAR-3
OVCAR-4 = tested on: OVCAR-4
HCT-116 = tested on: HCT-116
NCI-H23 = tested on: NCI-H23
IGROV-1 = tested on: IGROV-1
DU-145 = tested on: DU-145
PC-3 = tested on: PC-3
MDA-N = tested on: MDA-N
COLO 205 = tested on: COLO 205
BT-549 = tested on: BT-549
CCRF-CEM = tested on: CCRF-CEM
HL-60 = tested on: HL-60
SR = tested on: SR

Measured: GI50

CC(=O)OCC1OC(n2c(N)c(C#N)c(C)c(C#N)c2=S)C(OC(C)=O)C(OC(C)=O)C1OC(C)=O (centres undefined)
inactive: 786-0 > 100 µM | U-251 > 100 µM | M14 46.3 µM and 80.9 µM | NCI/ADR-RES > 100 µM | Hs-578T > 100 µM | NCI-H460 > 100 µM | UACC-62 > 100 µM | OVCAR-3 > 100 µM | OVCAR-4 > 100 µM | HCT-116 > 100 µM | NCI-H23 > 100 µM | IGROV-1 > 100 µM | DU-145 > 100 µM | PC-3 > 100 µM | MDA-N > 100 µM | COLO 205 > 100 µM | BT-549 > 100 µM | CCRF-CEM > 100 µM

Fc1ccc(C(OCCN2CCC3CCC(C2)N3C/C=C/c2cccs2)c2ccc(F)cc2)cc1 (centres undefined)
inactive: 786-0 8.49 µM | U-251 5.64 µM | M14 4.25 µM | NCI/ADR-RES 6.24 µM | Hs-578T 12.1 µM | NCI-H460 3.08 µM | UACC-62 11.5 µM | OVCAR-3 10.6 µM | OVCAR-4 7.36 µM | HCT-116 3.45 µM | NCI-H23 8.34 µM | IGROV-1 10.1 µM | DU-145 12.3 µM | PC-3 5.75 µM | MDA-N 10.3 µM | COLO 205 1.96 µM | BT-549 13.2 µM | CCRF-CEM 8.09 µM

CC(C)CCNC(=O)c1ccc(CNC(=O)/C=C/c2csc(-c3ccccc3)n2)cc1
inactive: 786-0 32.7 µM | U-251 29.4 µM | M14 > 100 µM | NCI/ADR-RES 36.9 µM | Hs-578T 32.6 µM | NCI-H460 > 100 µM | UACC-62 > 100 µM | OVCAR-3 > 100 µM | OVCAR-4 14.5 µM | HCT-116 46.7 µM | NCI-H23 > 100 µM | IGROV-1 34.2 µM | DU-145 > 100 µM | PC-3 > 100 µM | MDA-N > 100 µM | COLO 205 > 100 µM | BT-549 78.5 µM | CCRF-CEM > 100 µM

C=C1C(=O)O[C@@H]2C[C@@]3(C)CC(=O)C=C(C)[C@@H]3C[C@H]12
inactive: 786-0 12.4 µM | U-251 15.5 µM | M14 13.5 µM | HL-60 1.71 µM | NCI/ADR-RES 11.3 µM | Hs-578T 27.2 µM | UACC-62 14.6 µM | OVCAR-3 6.15 µM | OVCAR-4 9.1 µM | HCT-116 5.32 µM | NCI-H23 13.8 µM | IGROV-1 13.3 µM | DU-145 4.29 µM | PC-3 18.2 µM | MDA-N 3.74 µM | COLO 205 3.37 µM | BT-549 10.8 µM | CCRF-CEM 5.83 µM

C=C=C(CC(CC(=C)Br)(C(=O)OC)C(=O)OC)S(=O)(=O)c1ccccc1
inactive: U-251 1.5 µM | M14 1.96 µM | NCI/ADR-RES 2.26 µM | Hs-578T 2.39 µM | NCI-H460 5.86 µM | UACC-62 1.61 µM | OVCAR-3 2.27 µM | OVCAR-4 8.89 µM | NCI-H23 2.05 µM | IGROV-1 1.66 µM | DU-145 1.6 µM | PC-3 1.73 µM | MDA-N 2.44 µM | COLO 205 1.84 µM | BT-549 1.4 µM
active: 786-0 1.05 µM | HL-60 0.494 µM | HCT-116 0.92 µM | CCRF-CEM 0.497 µM

COc1ccccc1/N=N/C(=N\NC(=O)c1ccc(C)cc1)c1ccc(N(CCC#N)CCC#N)cc1C
active: CCRF-CEM 0.693 µM
inactive: 786-0 70.3 µM | U-251 43.9 µM | M14 38.2 µM | NCI/ADR-RES 63 µM | Hs-578T 39.3 µM | NCI-H460 32.3 µM | OVCAR-3 18.7 µM | OVCAR-4 43.6 µM | HCT-116 31.6 µM | NCI-H23 28.2 µM | IGROV-1 33.7 µM | DU-145 32.6 µM | PC-3 35 µM | MDA-N 45.6 µM | COLO 205 15.7 µM | BT-549 35.2 µM | SR 29.3 µM

c1ccc(CCN2CCN=C2Cc2ccccc2)cc1
inactive: 786-0 > 100 µM | U-251 > 100 µM | M14 31.1 µM | HL-60 > 100 µM | NCI/ADR-RES 90.4 µM | Hs-578T > 100 µM | NCI-H460 > 100 µM | UACC-62 > 100 µM | OVCAR-3 71.3 µM | OVCAR-4 > 100 µM | HCT-116 > 100 µM | NCI-H23 > 100 µM | IGROV-1 > 100 µM | DU-145 > 100 µM | MDA-N > 100 µM | COLO 205 > 100 µM | BT-549 > 100 µM | CCRF-CEM 37.3 µM | SR > 100 µM

COc1ccc(/C=C2\CCC(CN(C)C)C2=O)cc1OC (centres undefined)
inactive: 786-0 3.34 µM | U-251 16.1 µM | M14 6.87 µM | HL-60 2.07 µM | NCI/ADR-RES 2.49 µM | Hs-578T 4.3 µM | NCI-H460 11.1 µM | UACC-62 5.46 µM | OVCAR-3 7.21 µM | OVCAR-4 7.64 µM | HCT-116 2.3 µM | NCI-H23 7.82 µM | IGROV-1 13.1 µM | DU-145 8.24 µM | PC-3 7.55 µM | COLO 205 2.07 µM | BT-549 5.43 µM | CCRF-CEM 1.32 µM | SR 1.86 µM

C=CCN1C(=O)N/C(=C\c2ccc(Cl)cc2)C1=O
inactive: 786-0 > 100 µM | U-251 > 100 µM | M14 > 100 µM | HL-60 > 100 µM | NCI/ADR-RES > 100 µM | Hs-578T > 100 µM | NCI-H460 > 100 µM | UACC-62 97.7 µM | OVCAR-3 > 100 µM | OVCAR-4 > 100 µM | HCT-116 > 100 µM | NCI-H23 > 100 µM | IGROV-1 > 100 µM | DU-145 > 100 µM | MDA-N > 100 µM | COLO 205 > 100 µM | BT-549 > 100 µM | CCRF-CEM > 100 µM

C[n+]1c(-c2ccccc2)cc2/c(=C\c3ccc([N+](=O)[O-])cc3)c3ccccc3n21
active: HL-60 0.764 µM | HCT-116 1.02 µM | COLO 205 0.532 µM | BT-549 0.281 µM | CCRF-CEM 0.692 µM
inactive: 786-0 1.52 µM | U-251 1.43 µM | M14 5.24 µM | NCI/ADR-RES > 100 µM | Hs-578T 1.29 µM | NCI-H460 1.45 µM | UACC-62 6.35 µM | OVCAR-3 3.06 µM | OVCAR-4 26.1 µM | NCI-H23 2.51 µM | IGROV-1 1.39 µM | DU-145 1.74 µM | PC-3 3.1 µM | MDA-N 2.37 µM

C1=CCC[C@@H]2CN3CCCC/C=C\CCCC[C@H]4C[C@H](CN(CCCCCCCC1)C4)[C@H]2CC3
inactive: 786-0 8.67 µM | U-251 8.51 µM | M14 8.97 µM | HL-60 12 µM | Hs-578T 10.3 µM | NCI-H460 9.75 µM | UACC-62 9.46 µM | OVCAR-3 8.07 µM | OVCAR-4 12.2 µM | HCT-116 9.12 µM | NCI-H23 13.2 µM | IGROV-1 10.2 µM | DU-145 18.2 µM | PC-3 12.8 µM | MDA-N 8.79 µM | COLO 205 8.28 µM | BT-549 12.9 µM | CCRF-CEM 12.4 µM | SR 9.25 µM

Cc1ccc(C(=O)Nc2ccc(CP(=O)(O)O)cc2)cc1NC(=O)Nc1cc(C(=O)Nc2ccc(CP(=O)(O)O)cc2)ccc1C
inactive: 786-0 > 100 µM | U-251 > 100 µM | M14 > 100 µM | HL-60 > 100 µM | NCI/ADR-RES > 100 µM | Hs-578T > 100 µM | NCI-H460 > 100 µM | UACC-62 > 100 µM | OVCAR-3 > 100 µM | OVCAR-4 > 100 µM | HCT-116 > 100 µM | NCI-H23 > 100 µM | IGROV-1 > 100 µM | DU-145 > 100 µM | PC-3 > 100 µM | MDA-N > 100 µM | COLO 205 > 100 µM | BT-549 > 100 µM | CCRF-CEM > 100 µM

CC(C)N1C=[N+](C(C)C)CC1
inactive: 786-0 > 100 µM | U-251 > 100 µM | M14 > 100 µM | NCI/ADR-RES > 100 µM | Hs-578T > 100 µM | NCI-H460 > 100 µM | OVCAR-3 > 100 µM | OVCAR-4 > 100 µM | HCT-116 > 100 µM | NCI-H23 > 100 µM | IGROV-1 > 100 µM | DU-145 > 100 µM | PC-3 > 100 µM | MDA-N > 100 µM | COLO 205 > 100 µM | BT-549 > 100 µM | CCRF-CEM > 100 µM

CCOc1ccc(N/C(=C(/C(Cl)=C(/Cl)NCCN)[N+](=O)[O-])n2nnc3ccccc32)cc1
inactive: 786-0 31.8 µM | U-251 35.8 µM | M14 43.9 µM | NCI/ADR-RES 49.5 µM | Hs-578T 27.5 µM | NCI-H460 > 100 µM | UACC-62 43.5 µM | OVCAR-3 13 µM | OVCAR-4 30.6 µM | HCT-116 24.3 µM | NCI-H23 32.5 µM | PC-3 28.8 µM | MDA-N 58.1 µM | COLO 205 15.6 µM | BT-549 28.4 µM | CCRF-CEM 22.6 µM

O=[N+]([O-])C[C@@]12O[C@]3(O)C4C5CC(C6C5C3C61)C42 (some centres undefined)
inactive: 786-0 > 100 µM | U-251 > 100 µM | M14 > 100 µM | HL-60 > 100 µM | NCI/ADR-RES > 100 µM | Hs-578T > 100 µM | NCI-H460 > 100 µM | UACC-62 > 100 µM | OVCAR-3 > 100 µM | OVCAR-4 > 100 µM | HCT-116 > 100 µM | NCI-H23 > 100 µM | IGROV-1 > 100 µM | DU-145 > 100 µM | PC-3 > 100 µM | COLO 205 > 100 µM | BT-549 > 100 µM | CCRF-CEM > 100 µM | SR 80.2 µM
